Data on 21 substances can be found in patent US11186617B2, “Epitope” (HOYU CO., LTD., priority 2017, dated 2021).

Entries after “also recorded” stand apart in the source; their conditions may differ.

Assay [1] concerns IgE antibody in the serum from a patient. Description: Epitope mapping (2): overlapping peptide library, ELISA. Conditions: overlapping peptide fragments, 10 amino acids in length; 10 μg/ml biotin-bound peptide; 2% serum from patient 1; FIG. 2. The assay is classed as binding, human. As to the method:
Based on the sequences (SEQ ID NOs: 6 and 13) of the peptides to which the IgE antibody in the serum bound in a manner specific to a patient in the above (A), a library of overlapping peptide fragments (10 amino acids in length) was prepared. The library was prepared using the sequences where sequences of the previous sequence and the next sequence of the aforementioned peptides in the full-length amino acid sequence of ω-5 gliadin from bread wheat (SEQ ID NO: 51) were added to the aforementioned peptides, and epitope mapping was performed.
Each synthesized peptide was shifted by one amino acid. In other words, each peptide overlaps with the previous peptide and the next peptide, each by 9 amino acids.
The target peptide was synthesized on the amino-modified resin in a 96-well plate by a method similar to that described above for (A). Biotin was bound to the amino terminus of the synthesized target peptide, with the biotin and the peptide sandwiching amino caproic acid derived from Fmoc-Acp(6)-OH as a spacer.
Said library was used to measure whether each peptide fragment is bound by the IgE antibody in the serum from a patient due to an antigen-antibody reaction, or not, and identify a sequence common to the peptides bound by the IgE antibody from the patient, thereby determining a peptide having the shortest amino acid sequence that serves as an epitope. Measurement was performed by an ELISA method in accordance with the following procedures.
(1) 10 μg/ml biotin-bound peptide of the library was prepared in PBST solution and was shaken in an avidin-coated ELISA plate for one hour at room temperature.
(2) The plate was washed with PBST solution.
(3) The plate was shaken in PBST solution with 1% skimmed milk for one hour at room temperature.
(4) The plate was shaken in PBST solution with 2% serum and 1% skimmed milk for one hour at room temperature.
(5) The plate was washed with PBST solution.
(6) Anti-human IgE antibody-HRP (1:10,000, PBST solution with 1% skimmed milk) was added and the plate was shaken for one hour at room temperature.
(7) The plate was washed with PBST solution.
(8) 20 μl of TMB ELISA (manufactured by Thermo Fisher Scientific) was added and the plate was shaken for 15 minutes at room temperature.
(9) 20 μl of 2 M sulfuric acid was added to quench an enzymatic reaction.
(10) An absorbance at 450 nm was measured.
(SEQ ID NO: 15), a subsequence of ω-5 gliadin from bread wheat, was measured by the overlapping technique in the library prepared based on SEQ ID NO: 6 and the obtained result is shown in FIG. 2. […] (SEQ ID NO: 23), a subsequence of ω-5 gliadin from bread wheat, was measured by the overlapping technique in the library prepared based on SEQ ID NO: 13 and the obtained result is shown in FIG. 2.

In assay [2] the test system is IgE antibody from the patient. Nature of the assay: Epitope mapping (3): alanine scanning ELISA, patient serum. The conditions noted are these: alanine-substituted peptides; serum from patient 1; FIG. 3. The assay is classed as binding, human. The protocol: (§1) The amino acid sequence of SEQ ID NO: 22 and the amino acid sequence of SEQ ID NO: 29 identified in the above-mentioned (B) were subjected to a technique referred to as alanine scanning (Non Patent Literature 1). Specifically, a library of peptide fragments was prepared by a technique similar to that described above in (B), in which the peptide fragments were produced by substituting one amino acid at a time with alanine in each amino acid sequence of […], starting from the amino acid at an amino terminal side. Then, a technique similar to that described above in (B) was used to measure whether each peptide fragment was bound by the IgE antibody in the serum from a patient and a healthy subject, or not. When alanine substitution of an amino acid at a certain position led to loss or reduction of binding activity to the IgE antibody from the patient and development of binding activity to the IgE antibody from the healthy subject, the amino acid was determined to be an amino acid important for expression of inherent antigenicity or an amino acid affecting expression of inherent antigenicity. […] A common sequence important for expression of inherent antigenicity was discovered by this analysis.
(§2) The result of alanine scanning performed on the amino acid sequence of SEQ ID NO: 22 and the result of alanine scanning performed on the amino acid sequence of SEQ ID NO: 29 are shown in FIG. 3, respectively.
(In an ELISA, binding on a coated surface is turned into a signal by an enzyme label.)

Assay [3] has as its system IgE antibody from the healthy subject. Description: Epitope mapping (3): alanine scanning ELISA, healthy subject serum. The assay is classed as binding, human. Conditions: alanine-substituted peptides; sera from healthy individuals 1 and 2; FIG. 3. As to the method:
as §1, §2

The test system of assay [4] is anti-human IgE antibody as a secondary antibody. Description: Epitope mapping (3): alanine scanning ELISA, secondary antibody used alone. In kind it is binding. Conditions: alanine-substituted peptides, FIG. 3.
From the text: FIG. 3 is a diagram showing the result of investigation of positions important for exerting antigenicity in SEQ ID NOs: 22 and 29 by an alanine scanning technique. The number on the horizontal axis denotes a value of coloration intensity at 450 nm measured by an absorption spectrometer (Abs.). In this figure, a double wavy line denotes that a value is not shown, P1 denotes that the serum from patient 1 was used, N1 and N2 denote that the sera from healthy individuals 1 and 2 were used, and 2nd denotes that an anti-human IgE antibody as a secondary antibody was used alone.
as §1, §2

As to “SEQ ID NO: 21: overlapping 10-amino-acid peptide fragment from SEQ ID NO: 15 library (QFPQQEFPQQ; epitope candidate)”, the “binding with the IgE antibody from the patient (absorbance at 450 nm)” value (“binding with the IgE antibody” for short) in assay [1] is reported as “no binding”.
For the substance “SEQ ID NO: 7: amino acid at position 3 in SEQ ID NO: 22 substituted with alanine (QQFPQQEAPQQQQFP; epitope)”, the “binding activity to the IgE antibody from the patient (absorbance at 450 nm)” value in assay [2] was “retained binding activity; also recorded: substantially increased binding activity”. Moreover, in assay [3], the “binding activity to the IgE antibody from the healthy subject (absorbance at 450 nm)” value was “developed little binding activity”. For the same substance, in assay [4], the “binding activity to the anti-human IgE antibody as the secondary antibody (absorbance at 450 nm)” value is reported as “developed little binding activity”.
For “SEQ ID NO: 40: amino acid at position 3 in SEQ ID NO: 29 substituted with alanine (PQAQPPQQHQFPQQQ; modified epitope)”, the “binding activity to the IgE antibody from the patient (absorbance at 450 nm)” value in assay [2] is given as “loss of binding activity”. For the same substance, the “binding activity to the anti-human IgE antibody as the secondary antibody (absorbance at 450 nm)” value in assay [4] is “developed binding activity”.
For “SEQ ID NO: 27: overlapping 10-amino-acid peptide fragment from SEQ ID NO: 23 library, contains SEQ ID NO: 29 (QFPQQQPPQQ; epitope candidate)”, the “binding with the IgE antibody” value in assay [1] is reported as “slightly weaker binding”.
The same measure, in the same setting: next, “SEQ ID NO: 26: overlapping 10-amino-acid peptide fragment from SEQ ID NO: 23 library, contains SEQ ID NO: 29 (FPQQQPPQQH; epitope candidate)”: “strong binding”; “SEQ ID NO: 20: overlapping 10-amino-acid peptide fragment from SEQ ID NO: 15 library, contains SEQ ID NO: 22 (FPQQEFPQQQ; epitope candidate)”: “strong binding”.
The same measure, in the same setting: next, “SEQ ID NO: 25: overlapping 10-amino-acid peptide fragment from SEQ ID NO: 23 library, contains SEQ ID NO: 29 (PQQQPPQQHQ; epitope candidate)”: “strong binding”.
As to “SEQ ID NO: 31: amino acid at position 6 in SEQ ID NO: 22 substituted with alanine (QQFPQQEFPQAQQFP; modified epitope)”, the “binding activity to the IgE antibody from the patient (absorbance at 450 nm)” value in assay [2] was “slightly reduced binding activity”. For the same substance, the “binding activity to the IgE antibody from the healthy subject (absorbance at 450 nm)” value in assay [3] is reported as “developed a relatively low level of binding activity”. Further, in assay [4], the “binding activity to the anti-human IgE antibody as the secondary antibody (absorbance at 450 nm)” value was “developed a relatively low level of binding activity”.
With “SEQ ID NO: 24: overlapping 10-amino-acid peptide fragment from SEQ ID NO: 23 library (QQQPPQQHQF; epitope candidate)”, in assay [1], the “binding with the IgE antibody” value was “no binding”.
For the substance “SEQ ID NO: 41: amino acid at position 2 in SEQ ID NO: 29 substituted with alanine (PAQQPPQQHQFPQQQ; modified epitope)”, the “binding activity to the IgE antibody from the patient (absorbance at 450 nm)” value in assay [2] is given as “a relatively low level of reduction of binding activity”.
On the same count and under the same terms, then “SEQ ID NO: 42: amino acid at position 1 in SEQ ID NO: 29 substituted with alanine (AQQQPPQQHQFPQQQ; Artificial Sequnece; modified epitope)”, with “loss of binding activity”.
As for “SEQ ID NO: 18: overlapping 10-amino-acid peptide fragment from SEQ ID NO: 15 library, contains SEQ ID NO: 22 (QQEFPQQQQF; epitope candidate)”, the “binding with the IgE antibody” value in assay [1] is “strong binding”.
Still for that read-out and setting: next, “SEQ ID NO: 28: overlapping 10-amino-acid peptide fragment from SEQ ID NO: 23 library (QQFPQQQPPQ; epitope candidate)”: “no binding”.
Regarding “SEQ ID NO: 33: amino acid at position 4 in SEQ ID NO: 22 substituted with alanine (QQFPQQEFAQQQQFP; modified epitope)”, the “binding activity to the IgE antibody from the patient (absorbance at 450 nm)” value in assay [2] is recorded as “lost or reduced”. The “binding activity to the IgE antibody from the healthy subject (absorbance at 450 nm)” value in assay [3] was “developed binding activity”.
Turning to “SEQ ID NO: 30: amino acid at position 7 in SEQ ID NO: 22 substituted with alanine (QQFPQQEFPQQAQFP; modified epitope)”, the “binding activity to the IgE antibody from the patient (absorbance at 450 nm)” value in assay [2] is “lost or reduced”. For the same substance, the “binding activity to the anti-human IgE antibody as the secondary antibody (absorbance at 450 nm)” value in assay [4] is “developed binding activity”.
With “SEQ ID NO: 16: overlapping 10-amino-acid peptide fragment from SEQ ID NO: 15 library (EFPQQQQFPQ; epitope candidate)”, the “binding with the IgE antibody” value in assay [1] is recorded as “no binding”.
Same read-out and setting: then “SEQ ID NO: 19: overlapping 10-amino-acid peptide fragment from SEQ ID NO: 15 library, contains SEQ ID NO: 22 (PQQEFPQQQQ; epitope candidate)”, with “slightly weaker binding”.
On to “SEQ ID NO: 39: amino acid at position 4 in SEQ ID NO: 29 substituted with alanine (PQQAPPQQHQFPQQQ; modified epitope)”, for which the “binding activity to the IgE antibody from the patient (absorbance at 450 nm)” value in assay [2] was “retained binding activity”. For the same substance, the “binding activity to the IgE antibody from the healthy subject (absorbance at 450 nm)” value in assay [3] is recorded as “did not develop binding activity”.
In the case of “SEQ ID NO: 17: overlapping 10-amino-acid peptide fragment from SEQ ID NO: 15 library, contains SEQ ID NO: 22 (QEFPQQQQFP; epitope candidate)”, in assay [1], the “binding with the IgE antibody” value was “slightly weaker binding”.
Regarding “SEQ ID NO: 34: amino acid at position 2 in SEQ ID NO: 22 substituted with alanine (QQFPQQAFPQQQQFP; modified epitope)”, the “binding activity to the IgE antibody from the patient (absorbance at 450 nm)” value in assay [2] is recorded as “slightly increased binding activity”. The “binding activity to the IgE antibody from the healthy subject (absorbance at 450 nm)” value in assay [3] is reported as “developed binding activity”.
Regarding “SEQ ID NO: 14: amino acid at position 5 in SEQ ID NO: 29 substituted with alanine (PQQQAPQQHQFPQQQ; epitope)”, the “binding activity to the IgE antibody from the patient (absorbance at 450 nm)” value in assay [2] is given as “retained binding activity; also recorded: substantially increased binding activity”. Moreover, the “binding activity to the IgE antibody from the healthy subject (absorbance at 450 nm)” value in assay [3] is given as “did not develop binding activity”.
